Measured values from patent publication US12060588B2, “Methods of editing DNA methylation” (Whitehead Institute for Biomedical Research, priority 2016, dated 2024).

Assays:
[1] = tested on: Snrpn promoter (IG-DMR GFP/Pat reporter), neurons; experiment: In vivo activation of the IG-DMR GFP/Pat reporter in mouse brain (stereotaxic lentiviral delivery)
Description: (§1) FIGS. 7A-7H depict targeted ex vivo and in vivo DNA methylation editing by dCas9-Tet1 to activate a silenced GFP reporter. FIG. 7A provides a schematic diagram illustrating the experimental procedure for the ex vivo activation of a silenced GFP reporter in mouse fibroblast cells. Mouse tail fibroblast cells were derived from a genetically modified mouse line carrying a paternal IG-DMR-Snrpn-GFP allele (IG-DMRGFP/Pat) in the Dlk1-Dio3 locus. The IG-DMR-Snrpn promoter on the paternal allele is hypermethylated so that the GFP reporter is constitutively silenced. […] Brains were sliced and analyzed by immunohistochemical approaches. […] FIGS. 7G-7H provide quantification of the percentage of IG-DMR^GFP/Pat cells with GFP activation in Cherry (gRNAs) positive cells in the in vivo lentiviral delivery experiment in the brain (FIG. 7G) and in the skin epidemis (FIG. 7H). […]
To investigate whether the DNA methylation status can be modified in vivo, we infected 3 epidermal sites on the ventral side of an IG-DMR^GFP/Pat transgenic mouse with the dCas9-Tet1 and Snrpn gRNAs (FIG. 14D). […] In addition we infected the brain of an IG-DMR^GFP/Pat transgenic mouse with lentiviral vectors using a stereotaxic setup and analyzed the effect on targeted DNA methylation in brain slices by confocal microscopy. […]

[2] = tested on: Snrpn promoter (IG-DMR GFP/Pat reporter), skin dermal cells; experiment: In vivo activation of the IG-DMR GFP/Pat reporter in mouse skin (lentiviral delivery)
Description: as §1, with “silenced. The cultured fibroblast cells were infected with lentiviral vectors expressing dCas9-Tet1 and gRNAs to demethylate the Snrpn promoter and activate the GFP reporter. Cells are subject to imaging and FACS analysis. […] Stained in red for Cherry, green for GFP and DAPI for nuclei. Scale bar: 100 um.” for “silenced.”
FIGS. 14A-14F depict activation of IG-DMR^GFP/Pat reporter in mouse skin cells by dCas9-Tet1 mediated demethylation. […] Note red auto-fluorescence on the left edges of the epidermis. […]

Substance | GFP reporter activation efficiency in Cherry positive cells (neurons) of the brain in vivo ([1]; with Snrpn gRNAs, stereotaxic lentiviral injection, 3 days) | GFP reporter activation in infected (Cherry positive) skin dermal cells in vivo ([2]; with Snrpn gRNAs, lentiviral injection into dermal sites, 3 days) | GFP reporter activation in Cherry positive cells of the brain in vivo ([1]; with a scrambled gRNA) | GFP reporter activation in infected skin dermal cells in vivo ([2]; with a scrambled gRNA)
dC-dT: dCas9 fused to an inactive mutant form of Tet1 (H1672Y, D1674A), SEQ ID NO: 160 | did not activate GFP reporter expression | did not activate GFP reporter expression | – | –
dCas9-Tet1: catalytically inactive Cas9 (dCas9) fused through NLS to the Tet1 catalytic domain, SEQ ID NO: 159; lentivirally expressed with gRNAs | – | – | did not activate GFP reporter expression | did not activate GFP reporter expression
